Columns and labels:
[1] = system: Aspergillus flavus IFO 6343; assay: Viable Count of Aspergillus flavus IFO 6343 in Erythritol Solution; type: cell-based
Experimental: Erythritol solutions of respective concentrations in the range of from 30 to 60% were prepared. To these were inoculated Staphylococcus aureus IFO 13276, Bacillus subtilis IFO 3134, and Escherichia coli IFO 3972 as bacteria, Candida albicans IFO 1549 and Saccharomyces cerevisiae ATCC 9763 as yeasts, Aspergillus niger IFO 6342, Aspergillus flavus IFO 6343, and Penicillium funiculosum IFO 6345 as fungi, respectively, in a population (concentration) of 10,000 cells/mL or more. After the inoculation, the solutions were stored at 30, 37, 45, 50, or 60° C., respectively, for 56 days and the number of viable cell was determined daily. The determination of the number of viable cell was performed by a method of coating 0.1 mL of appropriately diluted sample cultivation on an agar plate and cultivating and counting the number of viable cell (the number of colony) that grew after the cultivation.

[2] = Long-term Stability of Erythritol Solution by High Temperature Storage; type: physicochemical; parameters: change in the degree of coloring / Degree of Coloring: scale not given here
Experimental: solutions having erythritol concentrations of 50%, 55%, 58% and 62%, respectively, were prepared and stored at 55° C., 60° C., 65° C. and 75° C. respectively, for 2 months and degree of coloring, pH, and purity were measured and the degree of deterioration was studied.

[3] = 75° C., short period of 10 days or less
[4] = Storage Temperature: 55° C., Erythritol Concentration: 50%, 0 days
[5] = Storage Temperature: 55° C., Erythritol Concentration: 50%, 10 days
[6] = Storage Temperature: 55° C., Erythritol Concentration: 50%, 30 days
[7] = Storage Temperature: 55° C., Erythritol Concentration: 50%, 60 days
[8] = Storage Temperature: 60° C., Erythritol Concentration: 55%, 0 days
[9] = Storage Temperature: 60° C., Erythritol Concentration: 55%, 10 days
[10] = Storage Temperature: 60° C., Erythritol Concentration: 55%, 30 days
[11] = Storage Temperature: 60° C., Erythritol Concentration: 55%, 60 days
[12] = Storage Temperature: 65° C., Erythritol Concentration: 58%, 0 days
[13] = Storage Temperature: 65° C., Erythritol Concentration: 58%, 10 days

**Q.** For `OC[C@@H](O)[C@@H](O)CO` [Erythritol Solution, erythritol], which “The Number of Viable Cell” value ([1]; 45° C., 30% w/w, Day 0) is on record?
**A.** ≥ 10000 cells/mL

**Q.** And the “The Number of Viable Cell” value ([1]; 45° C., 30% w/w, Day 3)?
**A.** ≥ 10000 cells/mL

**Q.** What about the “The Number of Viable Cell” value ([1]; 45° C., 30% w/w, Day 7) of the same compound?
**A.** ≥ 10000 cells/mL

**Q.** And the “The Number of Viable Cell” value ([1]; 45° C., 30% w/w, Day 14)?
**A.** ≥ 10000 cells/mL

**Q.** And the “The Number of Viable Cell” value ([1]; 45° C., 30% w/w, Day 28)?
**A.** 0 cells/mL

**Q.** What about the “The Number of Viable Cell” value ([1]; 45° C., 30% w/w, Day 56) of the same compound?
**A.** 0 cells/mL

**Q.** What about the “The Number of Viable Cell” value ([1]; 45° C., 40% w/w, Day 0) of the same compound?
**A.** ≥ 10000 cells/mL

**Q.** What about the “The Number of Viable Cell” value ([1]; 45° C., 40% w/w, Day 3) of the same compound?
**A.** ≥ 10000 cells/mL

**Q.** And the “The Number of Viable Cell” value ([1]; 45° C., 40% w/w, Day 7)?
**A.** ≥ 10000 cells/mL

**Q.** And the “The Number of Viable Cell” value ([1]; 45° C., 40% w/w, Day 14)?
**A.** ≥ 10000 cells/mL

**Q.** And the “The Number of Viable Cell” value ([1]; 45° C., 40% w/w, Day 28)?
**A.** 0 cells/mL

**Q.** What about the “The Number of Viable Cell” value ([1]; 45° C., 40% w/w, Day 56) of the same compound?
**A.** 0 cells/mL

**Q.** What about the “The Number of Viable Cell” value ([1]; 45° C., 50% w/w, Day 0) of the same compound?
**A.** ≥ 10000 cells/mL

**Q.** And the “The Number of Viable Cell” value ([1]; 45° C., 50% w/w, Day 3)?
**A.** ≥ 10000 cells/mL

**Q.** And the “The Number of Viable Cell” value ([1]; 45° C., 50% w/w, Day 7)?
**A.** ≥ 10000 cells/mL

**Q.** What about the “The Number of Viable Cell” value ([1]; 45° C., 50% w/w, Day 14) of the same compound?
**A.** 0 cells/mL

**Q.** And the “The Number of Viable Cell” value ([1]; 45° C., 50% w/w, Day 28)?
**A.** 0 cells/mL

**Q.** What about the “The Number of Viable Cell” value ([1]; 45° C., 50% w/w, Day 56) of the same compound?
**A.** 0 cells/mL

**Q.** And the “The Number of Viable Cell” value ([1]; 50° C., 30% w/w, Day 0)?
**A.** ≥ 10000 cells/mL

**Q.** And the “The Number of Viable Cell” value ([1]; 50° C., 30% w/w, Day 3)?
**A.** 0 cells/mL

**Q.** What about the “The Number of Viable Cell” value ([1]; 50° C., 30% w/w, Day 7) of the same compound?
**A.** 0 cells/mL

**Q.** And the “The Number of Viable Cell” value ([1]; 50° C., 30% w/w, Day 14)?
**A.** 0 cells/mL

**Q.** And the “The Number of Viable Cell” value ([1]; 50° C., 30% w/w, Day 28)?
**A.** 0 cells/mL

**Q.** And the “The Number of Viable Cell” value ([1]; 50° C., 30% w/w, Day 56)?
**A.** 0 cells/mL

**Q.** And the “The Number of Viable Cell” value ([1]; 50° C., 40% w/w, Day 0)?
**A.** ≥ 10000 cells/mL

**Q.** And the “The Number of Viable Cell” value ([1]; 50° C., 40% w/w, Day 3)?
**A.** 0 cells/mL

**Q.** And the “The Number of Viable Cell” value ([1]; 50° C., 40% w/w, Day 7)?
**A.** 0 cells/mL

**Q.** And the “The Number of Viable Cell” value ([1]; 50° C., 40% w/w, Day 14)?
**A.** 0 cells/mL

**Q.** What about the “The Number of Viable Cell” value ([1]; 50° C., 40% w/w, Day 28) of the same compound?
**A.** 0 cells/mL

**Q.** What about the “The Number of Viable Cell” value ([1]; 50° C., 40% w/w, Day 56) of the same compound?
**A.** 0 cells/mL

**Q.** What about the “The Number of Viable Cell” value ([1]; 50° C., 50% w/w, Day 0) of the same compound?
**A.** ≥ 10000 cells/mL

**Q.** And the “The Number of Viable Cell” value ([1]; 50° C., 50% w/w, Day 3)?
**A.** 0 cells/mL

**Q.** And the “The Number of Viable Cell” value ([1]; 50° C., 50% w/w, Day 7)?
**A.** 0 cells/mL

**Q.** And the “The Number of Viable Cell” value ([1]; 50° C., 50% w/w, Day 14)?
**A.** 0 cells/mL

**Q.** What about the “The Number of Viable Cell” value ([1]; 50° C., 50% w/w, Day 28) of the same compound?
**A.** 0 cells/mL

**Q.** And the “The Number of Viable Cell” value ([1]; 50° C., 50% w/w, Day 56)?
**A.** 0 cells/mL

**Q.** What about the “growth of the microbes” value ([1]; temperature of 50° C. or more) of the same compound?
**A.** prevented from growing

**Q.** And the “time after which microbes died” value ([1]; temperature of 50° C. or more)?
**A.** 3 days

**Q.** And the “change in pH” value [2, 3]?
**A.** ≤ 1

**Q.** And the change in purity [2, 3]?
**A.** no change

**Q.** What about the “change in the degree of coloring” value [2, 3] of the same compound?
**A.** ≤ 0.01

**Q.** What about the “Degree of Coloring” value [2, 4] of the same compound?
**A.** 0.028

**Q.** What about the “Purity (%)” value [2, 4] of the same compound?
**A.** 99.9%

**Q.** What about the pH [2, 4] of the same compound?
**A.** 5.7

**Q.** What about the “Degree of Coloring” value [2, 5] of the same compound?
**A.** 0.028

**Q.** What about the “Purity (%)” value [2, 5] of the same compound?
**A.** 99.9%

**Q.** What about the pH [2, 5] of the same compound?
**A.** 5.6

**Q.** What about the “Degree of Coloring” value [2, 6] of the same compound?
**A.** 0.026

**Q.** And the “Purity (%)” value [2, 6]?
**A.** 100.0%

**Q.** And the pH [2, 6]?
**A.** 5.4

**Q.** And the “Degree of Coloring” value [2, 7]?
**A.** 0.027

**Q.** What about the “Purity (%)” value [2, 7] of the same compound?
**A.** 100.0%

**Q.** What about the pH [2, 7] of the same compound?
**A.** 5.1

**Q.** What about the “Degree of Coloring” value [2, 8] of the same compound?
**A.** 0.021

**Q.** And the “Purity (%)” value [2, 8]?
**A.** 99.9%

**Q.** What about the pH [2, 8] of the same compound?
**A.** 5.7

**Q.** And the “Degree of Coloring” value [2, 9]?
**A.** 0.021

**Q.** What about the “Purity (%)” value [2, 9] of the same compound?
**A.** 99.9%

**Q.** And the pH [2, 9]?
**A.** 5.4

**Q.** And the “Degree of Coloring” value [2, 10]?
**A.** 0.023

**Q.** What about the “Purity (%)” value [2, 10] of the same compound?
**A.** 99.9%

**Q.** And the pH [2, 10]?
**A.** 5.5

**Q.** And the “Degree of Coloring” value [2, 11]?
**A.** 0.028

**Q.** What about the “Purity (%)” value [2, 11] of the same compound?
**A.** 99.9%

**Q.** And the pH [2, 11]?
**A.** 5.0

**Q.** And the “Degree of Coloring” value [2, 12]?
**A.** 0.029

**Q.** What about the “Purity (%)” value [2, 12] of the same compound?
**A.** 100.0%

**Q.** And the pH [2, 12]?
**A.** 5.7

**Q.** What about the “Degree of Coloring” value [2, 13] of the same compound?
**A.** 0.030

**Q.** What about the “Purity (%)” value [2, 13] of the same compound?
**A.** 99.9%
